Laboratory results reported in ChEMBL document CHEMBL4422667, “Synthetic derivatives of the natural product 13-amino 2-desoxy-4-epi-pulchellin inhibit STAT3 signaling and induce G2/M arrest and death of colon cancer cells” (Bioorg Med Chem Lett, 2019).
Converted amounts (≈) assume the structure as drawn.

Key:
HCT-116 = assay: cells; conditions: Homo sapiens, HCT-116, 72 h
Description: Cytotoxicity against human HCT116 cells assessed as reduction in cell viability after 72 hrs by MTT assay

HT-29 = assay: cells; conditions: Homo sapiens, HT-29, 72 h
Description: Cytotoxicity against human HT-29 cells assessed as reduction in cell viability after 72 hrs by MTT assay

[1] = Aqueous solubility of compound at 25 degC; type: physicochemical; conditions: water

SMILES | IC50 (HCT-116) [µM] | IC50 (HT-29) [µM] | solubility [1] [µg/mL]
C[C@@H]1C[C@@H]2OC(=O)[C@@H](CNCCN(C)C)[C@H]2C[C@]2(C)[C@@H](O)CC[C@@H]12 (mixture of isomers) | > 30 |  | 
CC(O)CNC[C@@H]1C(=O)O[C@H]2C[C@@H](C)[C@@H]3CC[C@H](O)[C@@]3(C)C[C@@H]21 (mixture of isomers) | > 30 |  | 
C[C@@H]1C[C@@H]2OC(=O)[C@@H](CNCCCO)[C@H]2C[C@]2(C)[C@@H](O)CC[C@@H]12 (relative stereo) | > 30 |  | 
CCCCNC[C@@H]1C(=O)O[C@H]2C[C@@H](C)[C@@H]3CC[C@H](O)[C@@]3(C)C[C@@H]21 (relative stereo) | > 30 |  | 
CCCCCCNC[C@@H]1C(=O)O[C@H]2C[C@@H](C)[C@@H]3CC[C@H](O)[C@@]3(C)C[C@@H]21 (relative stereo) | > 30 |  | 
C[C@@H]1C[C@@H]2OC(=O)[C@@H](CN3CCN(C)CC3)[C@H]2C[C@]2(C)[C@@H](O)CC[C@@H]12 (relative stereo) | > 30 |  | 
C[C@@H]1C[C@@H]2OC(=O)[C@@H](CN3CCCCC3)[C@H]2C[C@]2(C)[C@@H](O)CC[C@@H]12 (relative stereo) | 8.39 | 3.86 | 
C[C@@H]1C[C@@H]2OC(=O)[C@@H](CN(C)C)[C@H]2C[C@]2(C)[C@@H](O)CC[C@@H]12 (relative stereo) | 5.18 | 3.31 | 
CCN(CC)C[C@@H]1C(=O)O[C@H]2C[C@@H](C)[C@@H]3CC[C@H](O)[C@@]3(C)C[C@@H]21 (relative stereo) | 5.46 | 3.45 | 
C[C@@H]1C[C@@H]2OC(=O)[C@@H](CN3CCNCC3)[C@H]2C[C@]2(C)[C@@H](O)CC[C@@H]12 (relative stereo) | 15.5 |  | 
C[C@@H]1C[C@@H]2OC(=O)[C@@H](CNCCCN(C)C)[C@H]2C[C@]2(C)[C@@H](O)CC[C@@H]12 (relative stereo) | > 30 |  | 
C[C@@H]1C[C@@H]2OC(=O)[C@@H](CN3CCC(O)CC3)[C@H]2C[C@]2(C)[C@@H](O)CC[C@@H]12 (relative stereo) | 5.36 | 3.19 | 
CCCNC[C@@H]1C(=O)O[C@H]2C[C@@H](C)[C@@H]3CC[C@H](O)[C@@]3(C)C[C@@H]21 (relative stereo) | > 30 |  | 
C[C@@H]1C[C@@H]2OC(=O)[C@@H](CN3CCOCC3)[C@H]2C[C@]2(C)[C@@H](O)CC[C@@H]12 (relative stereo) | 18.7 |  | 
CC(C)NC[C@@H]1C(=O)O[C@H]2C[C@@H](C)[C@@H]3CC[C@H](O)[C@@]3(C)C[C@@H]21 (relative stereo) | 17.8 |  | 

Results, then the compound that gave them:

IC50 (HCT-116) [µM] | IC50 (HT-29) [µM] | solubility [1] [µg/mL] | SMILES
4.94 | 3.38 |  | C=C1C(=O)O[C@@H]2C3O[C@]3(C)CC/C=C(\C)CC[C@@H]12 (stereo not given in full)
2.4 | 1.62 |  | CCN(C)C[C@@H]1C(=O)O[C@H]2C[C@@H](C)[C@@H]3CC[C@H](O)[C@@]3(C)C[C@@H]21 (relative stereo)
27.5 |  |  | COC(CNC[C@@H]1C(=O)O[C@H]2C[C@@H](C)[C@@H]3CC[C@H](O)[C@@]3(C)C[C@@H]21)OC (relative stereo)
12.2 |  |  | C[C@@H]1C[C@@H]2OC(=O)[C@@H](CN3CCC(N(C)C)CC3)[C@H]2C[C@]2(C)[C@@H](O)CC[C@@H]12 (relative stereo)
22.8 |  |  | C[C@@H]1C[C@@H]2OC(=O)[C@@H](CNCCN3CCCC3)[C@H]2C[C@]2(C)[C@@H](O)CC[C@@H]12 (relative stereo)
> 30 |  |  | CNC[C@@H]1C(=O)O[C@H]2C[C@@H](C)[C@@H]3CC[C@H](O)[C@@]3(C)C[C@@H]21 (relative stereo)
4.43 | 3.37 | 200 (≈ 799 µM) | C=C1C(=O)O[C@H]2C[C@@H](C)[C@@H]3CC[C@H](O)[C@@]3(C)C[C@H]12 [PSEUDOGUAIANOLIDE]
